According to patent US20240010726A1, “LFA-1 SIGNALLING MEDIATOR FOR USE IN CANCER THERAPY” (Universität Basel, priority 2020, published 2024):

Key:
[1] = system: human PHA T cell blasts; experiment: Degranulation of PHA T cell blasts ± BIRT377; format: cell-based; settings: ±BIRT377 50 μM
[2] = system: human PHA T cell blasts; experiment: Glycolytic switch of PHA T cell blasts ± BIRT377; format: cell-based; settings: ±BIRT377 50 μM
[3] = system: T2 target cells; format: cell-based, human; settings: 45 min; E:T 1:1; 1.2 mM Mg^2+ ± BIRT377 50 μM
[4] = system: murine WT and LFA-1^−/− CTLs; experiment: Degranulation marker CD107a on murine WT and LFA-1−/− CTLs; format: cell-based; settings: 8 h anti-CD3/anti-CD28 Ab; 1.2 mM Mg^2+ ± BIRT377 50 μM
[5] = system: REP T cells; experiment: FAK phosphorylation and CD107a degranulation of REP T cells co-incubated with T2 target cells; format: cell-based, human; settings: pulsed T2 target cells; 1.2 mM Mg^2+ ± BIRT377 50 μM
Description: FIG. 3: Magnesium regulates LFA-1 mediated T cell activation and cytotoxicity as well BiTE- and CAR T-cell functionality. (a) Glycolytic switch of murine WT and LFA-1^−/− CTLs upon injection of anti-CD3/28 Ab in medium containing 1.2 mM Mg^2+ and 0 mM Mg^2+, presented as quantification of summarized data with n=4 mice. (b) Calcium flux in WT and LFA-1^−/− Jurkat T cells stimulated with anti-CD3 Ab in 1.2 mM and 0 mM Mg^2+ medium, respectively. Cells were loaded with Fluo4, and signal intensity as recorded by plate reader, was normalized to unstimulated baseline values. […] Quantified results of n=3 mice with 3 technical replicates each. (d) Caspase-3 activity in EL4 target cells after co-culture with murine WT and LFA-1^−/− CTLs under the conditions as in (c) for 4 hours, in presence of 10 μg/ml PHA. The effector to target cell ratio was 3:1. Results are quantified of n=3 mice with 3 technical replicates each. (e) Representative CD11a (LFA-1) surface expression on human naïve and EM CD8 T cells, PHA T cell blasts and REP T cells, assessed by flow cytometry. Flow cytometry-based assessment of inactivate LFA-1 with bent conformation (f), extended conformation with β2 leg extension (g), LFA-1 with open head-piece (h), phosphorylation of FAK, expression of degranulation marker CD107a (j) on REP T cells after co-incubation with T2 target cells (pulsed with 10^−8 M 9c peptide) in same condition as in (c). The effector to target cell ratio was 1:1. Data is presented as quantified results of n=5 healthy donors (f, g, h), n=3 healthy donors with 2 technical replicates each or n=1 healthy donor with 4 technical replicates (j). […] Data is presented as quantified results of n=1 healthy donor with 4 technical replicates. […] Cytotoxicity is reported as total area under the curve of the fluorescence driven by incorporation of cytotoxic green reagent in dead target cells (green area per μm^2). […] (p) Abundance of IFNγ in cell culture supernatants corresponding to the conditions depicted in (o) at 24 hours was determined by ELISA (n=8, 3 independent experiments). […]

[6] = system: Ramos target cells; experiment: Co-culture assay with Blinatumomab, caspase-3 activity in Ramos target cells; format: cell-based, human; settings: PHA-blasts, 3.5 h co-culture; reported therapeutic range 230-620 pg ml^−1; varying Mg^2+
Description: FIG. 3: Magnesium regulates LFA-1 mediated T cell activation and cytotoxicity as well BiTE- and CAR T-cell functionality. (a) Glycolytic switch of murine WT and LFA-1^−/− CTLs upon injection of anti-CD3/28 Ab in medium containing 1.2 mM Mg^2+ and 0 mM Mg^2+, presented as quantification of summarized data with n=4 mice. (b) Calcium flux in WT and LFA-1^−/− Jurkat T cells stimulated with anti-CD3 Ab in 1.2 mM and 0 mM Mg^2+ medium, respectively. Cells were loaded with Fluo4, and signal intensity as recorded by plate reader, was normalized to unstimulated baseline values. […] Quantified results of n=3 mice with 3 technical replicates each. […] Results are quantified of n=3 mice with 3 technical replicates each. (e) Representative CD11a (LFA-1) surface expression on human naïve and EM CD8 T cells, PHA T cell blasts and REP T cells, assessed by flow cytometry. […] Data is presented as quantified results of n=5 healthy donors (f, g, h), n=3 healthy donors with 2 technical replicates each or n=1 healthy donor with 4 technical replicates (j). […] Data is presented as quantified results of n=1 healthy donor with 4 technical replicates. […] Cytotoxicity is reported as total area under the curve of the fluorescence driven by incorporation of cytotoxic green reagent in dead target cells (green area per μm^2). […]

Row | Substance | Degranulation of PHA T cell blasts [1] | Glycolytic switch of PHA T cell blasts [2] | Target cell killing by REP T cells (caspase-3 activity in T2 target cells) [3] | CD107a degranulation of LFA-1^−/− CTLs [4] | CD107a degranulation of WT CTLs [4] | Degranulation (CD107a) of REP T cells [5] | Blinatumomab-mediated cytotoxicity (caspase-3 activity in Ramos target cells) [6]
1 | BIRT377 [reference compound] | decreased degranulation | impaired glycolytic switching | reduced | unaffected | reduced CTL degranulation | reduced degranulation | 
2 | Blinatumomab: CD3/CD19 bispecific antibody engaging T cells to bind and eliminate CD19-positive cells |  |  |  |  |  |  | strongly dependent on availability of Mg^2+
